# Assay results published in article PMC8280112, “Substrate reduction therapy for Krabbe disease and metachromatic leukodystrophy using a novel ceramide galactosyltransferase inhibitor” (Scientific Reports, 2021).
# Columns and labels:
# [1] = Mouse pharmacokinetics and brain concentration; format: in vivo; conditions: C57BL/6 mice, single 20 mg/kg IP injection, plasma
# Method: Blood was collected in K2 EDTA tube to obtain a plasma sample (2000g, 5 min at 4 °C). The brain was removed, rinsed with cold saline, dried on filter paper, weighed, and snap frozen by placing on dry ice. Brains were homogenized in 3 volumes of PBS (pH 7.4) by mini-bead-beater before sample extraction for bioanalysis. […] Pharmacokinetic parameters were calculated using WinNonlin V 8.2 statistics software (Pharsight Corporation).
# [2] = target: T1, Recombinant human glucosylceramidase (GBA1) (Homo sapiens, UniProt P04062); experiment: Beta-glucocerebrosidase assay; format: biochemical
# T1 construct: purchased R&D Systems
# T1 sequence (P04062 40-536): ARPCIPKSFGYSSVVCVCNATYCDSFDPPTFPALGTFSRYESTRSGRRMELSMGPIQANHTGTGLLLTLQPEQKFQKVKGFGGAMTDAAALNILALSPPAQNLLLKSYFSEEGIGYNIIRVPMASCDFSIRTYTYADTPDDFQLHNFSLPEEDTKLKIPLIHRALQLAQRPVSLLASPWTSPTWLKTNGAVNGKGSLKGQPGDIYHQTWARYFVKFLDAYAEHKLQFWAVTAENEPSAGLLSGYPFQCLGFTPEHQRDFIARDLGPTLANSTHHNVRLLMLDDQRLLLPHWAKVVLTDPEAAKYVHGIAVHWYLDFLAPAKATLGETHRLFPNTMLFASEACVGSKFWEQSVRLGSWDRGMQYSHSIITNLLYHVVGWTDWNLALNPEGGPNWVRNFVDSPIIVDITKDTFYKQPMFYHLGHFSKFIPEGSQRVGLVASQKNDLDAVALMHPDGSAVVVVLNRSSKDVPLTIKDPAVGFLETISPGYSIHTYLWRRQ
# [3] = test system: wild-type mice; experiment: Low dose treatment of wild-type mice PND3 to PND70: vacuolation; format: in vivo, mouse; conditions: PND3 to PND70, 0.15 mg/kg
# [4] = target: T2, rhARSA (Homo sapiens, UniProt P15289); experiment: Arylsulfatase A assay; format: biochemical; conditions: read-out: ARSA IC50
# T2 construct: purchased R&D systems
# T2 sequence (P15289 19-507): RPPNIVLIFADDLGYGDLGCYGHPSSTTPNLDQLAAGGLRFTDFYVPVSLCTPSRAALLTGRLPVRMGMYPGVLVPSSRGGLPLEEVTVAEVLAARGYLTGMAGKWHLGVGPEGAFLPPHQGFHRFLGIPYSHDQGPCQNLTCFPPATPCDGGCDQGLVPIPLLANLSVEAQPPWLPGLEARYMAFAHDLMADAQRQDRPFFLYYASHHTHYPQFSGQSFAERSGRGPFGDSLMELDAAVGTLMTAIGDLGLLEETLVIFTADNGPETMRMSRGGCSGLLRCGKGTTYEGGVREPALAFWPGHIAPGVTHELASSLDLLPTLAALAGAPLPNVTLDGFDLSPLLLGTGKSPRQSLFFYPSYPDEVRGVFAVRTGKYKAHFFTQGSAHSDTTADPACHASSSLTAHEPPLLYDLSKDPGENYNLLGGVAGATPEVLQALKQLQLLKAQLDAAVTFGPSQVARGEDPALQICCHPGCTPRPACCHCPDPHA
# Method: The ARSA assay was modified from a previously reported method. The reaction mixture contained 40 ng of rhARSA (R&D systems), various concentrations of inhibitor, and 6.2 µM N-octadecanoyl-d3-sulfatide substrate in reaction buffer (0.08 M sodium acetate at pH 4.5, 2.08 g/L sodium taurodeoxycholate, 33 mM MnCl2, 0.4% DMSO) and was incubated for 16 h at 37 °C. The reaction was terminated with equal volume MeOH:ethyl acetate (EA). N-octadecanoyl-d35-psychosine (Matreya) was added as the IS, together with 400 µL EA and 200 µL H2O. After centrifugation, 200 µL of the EA layer was dried under a stream of N2 and resuspended in 100 µL MeOH before quantifying the N-octadecanoyl-d3-galactosylceramide product using a reported UPLC–MS/MS method.
# [5] = target: T3, UGT1A (Homo sapiens, UniProt P22309); experiment: UDP glucuronosyltransferase assay (Eurofins Panlabs); format: biochemical
# T3 construct: purchased Eurofins Panlabs Taiwan, Ltd. ITEM 196000
# T3 sequence (P22309 26-533): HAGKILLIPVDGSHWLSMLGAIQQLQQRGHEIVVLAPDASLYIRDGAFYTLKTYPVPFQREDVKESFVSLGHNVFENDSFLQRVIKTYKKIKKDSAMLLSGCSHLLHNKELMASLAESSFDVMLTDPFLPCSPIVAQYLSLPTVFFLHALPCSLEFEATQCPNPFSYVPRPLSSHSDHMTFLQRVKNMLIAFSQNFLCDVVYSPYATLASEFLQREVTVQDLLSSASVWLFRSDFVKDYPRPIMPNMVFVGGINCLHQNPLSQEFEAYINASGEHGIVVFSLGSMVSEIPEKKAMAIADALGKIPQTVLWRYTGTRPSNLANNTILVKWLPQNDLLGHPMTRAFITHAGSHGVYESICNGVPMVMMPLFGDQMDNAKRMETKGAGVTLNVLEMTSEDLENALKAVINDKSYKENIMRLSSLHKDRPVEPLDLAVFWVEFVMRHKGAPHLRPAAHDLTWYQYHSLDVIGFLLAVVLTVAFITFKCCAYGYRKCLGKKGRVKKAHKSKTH
# Method: UGT1A activity was evaluated at Eurofins Panlabs Taiwan, Ltd. ITEM 196000.
smiles,measurement,setting,value
C[C@H]1N(c2ccc(Br)cc2)C(=O)N(c2ccc(Br)cc2)C1(O)c1cccc(OC(F)(F)F)c1 (stereo partly drawn) [S202],AUC(0-inf),[1],83800 ng·h/mL
same,AUC(0-t),[1],59400 ng·h/mL
same,Cmax,[1],8500 ng/mL
same,Tmax,[1],1 h
same,half-life,[1]; read-out: Terminal t1/2 (converted),12.2 h
same,IC50,[2],> 50 µM
same,"vacuolation in brain, spine and sciatic nerve",[3],"vacuolation was observed in a similar pattern, but was much less severe"
same,IC50,[4],> 50 µM
same,IC50,[5],> 30 µM
